Experimental data: patent US12473289B2, “Heterocyclic compounds as delta-5 desaturase inhibitors and methods of use” (Amgen Inc., priority 2019, dated 2025)

Target: Delta-5-Desaturase (D5D) (Homo sapiens (Human), UniProt O60427)
Test: In vitro measurement of Delta-5-Desaturase inhibitory activity using DGLA-CoA and Arachidonyl-CoA mass spectrometric assays
Assay type: biochemical
Settings: membrane preparations of D5D-overexpressing HEK293 6E cells; averaged over at least two independent runs
Description: In vitro Measurement of Delta-5-Desaturase Inhibitory Activity using DGLA-CoA and Arachidonyl-CoA Mass Spectrometric Assays
Membrane preparations of D5D-overexpressing HEK293 6E cells were prepared in which the total protein concentration was 5.6 mg/mL. Stock D5D membrane preparations were diluted in D5D assay buffer (25 mM 2-amino-2-(hydroxymethyl)-1,3-propanediol, pH 7.5 containing 10 mM MgCl2, 1 mM octyl glucoside (SigmaAldrich 0-8001), 1 mM tris(2-carboxyethyl)phosphine hydrochloride (SigmaAldrich 646547)) to a final D5D membrane concentration of 10 μg/mL in an assay plate containing serially diluted test compounds. To 15 μL of this D5D preparation was added 15 μL of a substrate solution (0.25 mM NADH (nicotinamide adenine dinucleotide, Roche Diag. 10107735001), 0.25 mM adenosine triphosphate (SigmaAldrich A-3377), 0.05 mM coenzyme A hydrate (SigmaAldrich C-4282), and 0.01 mM DGLA (dihomo-g-linolenic acid, Sigma E-4504) in the same D5D assay buffer. After one-hour incubation at ambient temperature acetonitrile (30 μL) was added to quench the reaction and plates were centrifuged for 10 min @3,000 rpm. Mass spectrometric analysis involved a Rapidfire 360 SPE system coupled to an ABSciex API4000 Triple Quadrupole mass spectrometer using a C18 SPE cartridge (G9203-80105) with ionization in negative mode (solvent A=100% water; solvent B=100% acetonitrile, each solvent containing 5 mM ammonium acetate). DGLA-CoA and Arachidonyl-CoA were detected by multiple reaction monitoring (MRM) of the doubly charged parent ions at m/z 526.6 and 525.6, respectively.
Sx is value from unknown sample, So is value from DMSO alone and Sc is value from no enzyme well. For CRC analysis, the % of inhibitions were analyzed with 4 Parameter Logistic Model or Sigmoidal Dose-Response Model using XLfit (IDBS, Guilford, UK). The potency of the test item was expressed as IC50 nM, corresponding to the test item concentration able to inhibit the 50% of the enzyme maximal response. IC50 values were averaged values determined by at least two independent runs.
This assay may be used to test any of the compounds described herein to assess and characterize a compound's ability to inhibit D5D.

Sequence of Delta-5-Desaturase (D5D) (O60427 whole entry, species assumed): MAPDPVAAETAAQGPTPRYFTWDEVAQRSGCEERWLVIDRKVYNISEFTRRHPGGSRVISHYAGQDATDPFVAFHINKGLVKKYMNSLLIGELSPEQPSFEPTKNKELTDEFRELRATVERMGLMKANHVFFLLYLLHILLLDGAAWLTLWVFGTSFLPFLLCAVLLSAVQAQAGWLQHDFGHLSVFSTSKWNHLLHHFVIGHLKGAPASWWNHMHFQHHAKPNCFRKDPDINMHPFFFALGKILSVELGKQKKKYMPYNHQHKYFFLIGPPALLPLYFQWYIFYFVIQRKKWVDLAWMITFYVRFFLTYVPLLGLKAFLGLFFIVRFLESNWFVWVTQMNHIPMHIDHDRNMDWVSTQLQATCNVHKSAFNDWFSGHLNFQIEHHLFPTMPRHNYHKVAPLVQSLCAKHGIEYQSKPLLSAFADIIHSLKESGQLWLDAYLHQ

| IC50 | Structure (SMILES) |
| --- | --- |
| 11.4 nM | COc1ccn2c(=O)c(-c3cnn(CC4CC4(F)F)c3)c(C(F)(F)F)nc2c1 (racemic) [Example 39-42, 3-{1-[(2,2-difluorocyclopropyl)methyl]-1H-pyrazol-4-yl}-8-methoxy-2-(trifluoromethyl)-4H-pyrido[1,2-a]pyrimidin-4-one] |
| 305 nM | COc1ccn2c(=O)c(-c3ccc(CC#N)cc3)c(C(F)(F)F)nc2c1 [Example 1-2, (4-(8-methoxy-4-oxo-2-(trifluoromethyl)-4H-pyrido[1,2-a]pyrimidin-3-yl)phenyl)acetonitrile] |
| 26.1 nM | COc1ccn2c(=O)c(-c3ccc(OCCF)cc3)c(C(F)(F)F)nc2c1 [Example 1-11, 3-(4-(2-fluoroethoxy)phenyl)-8-methoxy-2-(trifluoromethyl)-4H-pyrido[1,2-a]pyrimidin-4-one] |
| 9.9 nM | COc1ccn2c(=O)c(-c3ccc(OCC(F)(F)F)c(F)c3)c(C(F)F)nc2c1 [Example 1-12, 2-(difluoromethyl)-3-(3-fluoro-4-(2,2,2-trifluoroethoxy)phenyl)-8-methoxy-4H-pyrido[1,2-a]pyrimidin-4-one] |
| 34.2 nM | COc1ccn2c(=O)c(-c3ccc(OCC(F)(F)F)nc3)c(C(F)F)nc2c1 [Example 1-13, 2-(difluoromethyl)-8-methoxy-3-(6-(2,2,2-trifluoroethoxy)-3-pyridinyl)-4H-pyrido[1,2-a]pyrimidin-4-one] |
| 22.9 nM | COc1ccn2c(=O)c(-c3cnn(CCC(F)(F)F)c3)c(C(F)F)nc2c1 [Example 1-14, 2-(difluoromethyl)-8-methoxy-3-(1-(3,3,3-trifluoropropyl)-1H-pyrazol-4-yl)-4H-pyrido[1,2-a]pyrimidin-4-one] |
| 383 nM | COc1ccn2c(=O)c(-c3cnn(CCCC(F)(F)F)c3)c(C(F)F)nc2c1 [Example 1-16, 2-(difluoromethyl)-8-methoxy-3-(1-(4,4,4-trifluorobutyl)-1H-pyrazol-4-yl)-4H-pyrido[1,2-a]pyrimidin-4-one] |
| 13.9 nM | COc1ccn2c(=O)c(-c3cnn(-c4ccc(F)cc4)c3)c(C(F)(F)F)nc2c1 [Example 1-17, 3-(1-(4-fluorophenyl)-1H-pyrazol-4-yl)-8-methoxy-2-(trifluoromethyl)-4H-pyrido[1,2-a]pyrimidin-4-one] |
| 25.2 nM | COc1ccn2c(=O)c(-c3cnn(-c4cccc(F)c4)c3)c(C(F)(F)F)nc2c1 [Example 1-18, 3-(1-(3-fluorophenyl)-1H-pyrazol-4-yl)-8-methoxy-2-(trifluoromethyl)-4H-pyrido[1,2-a]pyrmidin-4-one] |
| 833 nM | COc1ccn2c(=O)c(-c3cnn(CCC#N)c3)c(C(F)(F)F)nc2c1 [Example 1-24, 3-(4-(8-methoxy-4-oxo-2-(trifluoromethyl)-4H-pyrido[1,2-a]pyrimidin-3-yl)-1H-pyrazol-1-yl)propanenitrile] |
| 278 nM | COc1ccn2c(=O)c(-c3cnn(CC#N)c3)c(C(F)(F)F)nc2c1 [Example 1-26, (4-(8-methoxy-4-oxo-2-(trifluoromethyl)-4H-pyrido[1,2-a]pyrimidin-3-yl)-1H-pyrazol-1-yl)acetonitrile] |
| 18.8 nM | CSc1ccn2c(=O)c(-c3cnn(CC(F)(F)C(F)(F)F)c3)c(C(F)(F)F)nc2c1 [Example 1-30, 8-(methylsulfanyl)-3-(1-(2,2,3,3,3-pentafluoropropyl)-1H-pyrazol-4-yl)-2-(trifluoromethyl)-4H-pyrido[1,2-a]pyrimidin-4-one] |
| 180 nM | COc1ccn2c(=O)c(-c3cnn(CCCC(F)(F)F)c3)c(C(F)(F)F)nc2n1 [Example 1-38, 8-methoxy-3-(1-(4,4,4-trifluorobutyl)-1H-pyrazol-4-yl)-2-(trifluoromethyl)-4H-pyrimido[1,2-a]pyrimidin-4-one] |
| 5.4 nM | COc1ccn2c(=O)c(-c3cnn(-c4ccccc4)c3)c(C(F)(F)F)nc2c1 [Example 1-47, 8-methoxy-3-(1-phenyl-1H-pyrazol-4-yl)-2-(trifluoromethyl)-4H-pyrido[1,2-a]pyrimidin-4-one] |

The remaining lines, values behind:

| Structure (SMILES) | IC50 |
| --- | --- |
| COc1cc2nc(C(F)(F)F)c(-c3cnn(CC4CC4(F)F)c3)c(=O)n2cc1F (racemic) [Example 39-59, 3-{1-[(2,2-difluorocyclopropyl)methyl]-1H-pyrazol-4-yl}-7-fluoro-8-methoxy-2-(trifluoromethyl)-4H-pyrido[1,2-a]pyrimidin-4-one] | 5 nM |
| COc1ccn2c(=O)c(-c3ccc(OC[C@@H]4CC4(F)F)cc3)c(C(F)(F)F)nc2c1 (single isomer, unassigned) [Example 1-84] | 2.7 nM |
| COc1ccn2c(=O)c(-c3ccc(CCC#N)cc3)c(C(F)(F)F)nc2c1 [Example 1-1, 3-(4-(8-Methoxy-4-oxo-2-(trifluoromethyl)-4H-pyrido[1,2-a]pyrimidin-3-yl)phenyl)propanenitrile] | 197 nM |
| COc1ccn2c(=O)c(-c3ccn(-c4ccccc4)n3)c(C(F)(F)F)nc2c1 [Example 1-3, 8-methoxy-3-(1-phenyl-1H-pyrazol-3-yl)-2-(trifluoromethyl)-4H-pyrido[1,2-a]pyrimidin-4-one] | 371 nM |
| COc1ccn2c(=O)c(-c3cc(-c4ccccc4)no3)c(C(F)(F)F)nc2c1 [Example 1-5, 8-methoxy-3-(3-phenyl-1,2-oxazol-5-yl)-2-(trifluoromethyl)-4H-pyrido[1,2-a]pyrimidin-4-one] | 46 nM |
| COc1ccn2c(=O)c(-c3cnc(-c4ccccc4)o3)c(C(F)(F)F)nc2c1 [Example 1-6, 8-methoxy-3-(2-phenyl-1,3-oxazol-5-yl)-2-(trifluoromethyl)-4H-pyrido[1,2-a]pyrimidin-4-one] | 110 nM |
| COc1ccn2c(=O)c(-c3cc4ccccc4o3)c(C(F)(F)F)nc2c1 [Example 1-7, 3-(1-benzofuran-2-yl)-8-methoxy-2-(trifluoromethyl)-4H-pyrido[1,2-a]pyrimidin-4-one] | 85.2 nM |
| O=C(O)c1ccn2c(=O)c(-c3cnn(CC(F)(F)C(F)(F)F)c3)c(C(F)(F)F)nc2c1 [Example 1-21, 4-oxo-3-(1-(2,2,3,3,3-pentafluoropropyl)-1H-pyrazol-4-yl)-2-(trifluoromethyl)-4H-pyrido[1,2-a]pyrimidine-8-carboxylic acid] | 3390 nM |
| CC(=O)c1ccn2c(=O)c(-c3ccc(OCC(F)(F)F)cc3)c(C(F)(F)F)nc2c1 [Example 1-25, 8-acetyl-3-(4-(2,2,2-trifluoroethoxy)phenyl)-2-(trifluoromethyl)-4H-pyrido[1,2-a]pyrimidin-4-one] | 6.4 nM |
| CN(C)c1ccn2c(=O)c(-c3ccc(OCC(F)(F)F)cc3)c(C(F)(F)F)nc2c1 [Example 1-28, 8-(dimethylamino)-3-(4-(2,2,2-trifluoroethoxy)phenyl)-2-(trifluoromethyl)-4H-pyrido[1,2-a]pyrimidine-4-one] | 43.5 nM |
| CC(=O)Nc1ccn2c(=O)c(-c3ccc(OCC(F)(F)F)cc3)c(C(F)(F)F)nc2c1 [Example 1-31, N-(4-oxo-3-(4-(2,2,2-trifluoroethoxy)phenyl)-2-(trifluoromethyl)-4H-pyrido[1,2-a]pyrimidin-8-yl)acetamide] | 1720 nM |
| CC(C)c1ccn2c(=O)c(-c3ccc(OCC(F)(F)F)cc3)c(C(F)(F)F)nc2c1 [Example 1-32, 8-(2-propanyl)-3-(4-(2,2,2-trifluoroethoxy)phenyl)-2-(trifluoromethyl)-4H-pyrido[1,2-a]pyrimidin-4-one] | 421 nM |
| COc1ccn2c(=O)c(-c3ccc(OCC#N)cc3)c(C(F)(F)F)nc2n1 [Example 1-40, (4-(8-methoxy-4-oxo-2-(trifluoromethyl)-4H-pyrimido[1,2-a]pyrimidin-3-yl)phenoxy)acetonitrile] | 18.6 nM |
| O=c1c(-c2cnn(-c3ccccc3)c2)c(C(F)(F)F)nc2ccccn12 [Example 1-43, 3-(1-phenyl-1H-pyrazol-4-yl)-2-(trifluoromethyl)-4H-pyrido[1,2-a]pyrimidin-4-one] | 45.6 nM |
| COc1cc2nc(C(F)(F)F)c(-c3cnn(CC(F)(F)C(F)(F)F)c3)c(=O)n2cc1Cl [Example 1-45, 7-chloro-8-methoxy-3-[1-(2,2,3,3,3-pentafluoropropyl)-1H-pyrazol-4-yl]-2-(trifluoromethyl)-4H-pyrido[1,2-a]pyrimidin-4-one] | 86.1 nM |
| O=c1c(-c2cnn(-c3ccc(F)cc3)c2)c(C(F)(F)F)nc2ccccn12 [Example 1-46, 3-(1-(4-fluorophenyl)-1H-pyrazol-4-yl)-2-(trifluoromethyl)-4H-pyrido[1,2-a]pyrimidin-4-one] | 36.4 nM |
| COc1ccn2c(=O)c(-c3ccc(OC(F)(F)F)cc3)c(C(F)(F)F)nc2c1 [Example 1-49, 8-methoxy-3-(4-(trifluoromethoxy)phenyl)-2-(trifluoromethyl)-4H-pyrido[1,2-a]pyrimidin-4-one] | 5.4 nM |
